What was measured:
[1] = system: late watergrass; assay: Test Example 1: herbicidal activity, application before weed generation under submerged conditions (Table 16, symbol A); type: in vivo, late watergrass (Echinochloa oryzicola); details: 320 g/ha applied herbicide
Method in brief: (§1)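 Alluvial soil was flooded to 4 cm depth, weed seeds were sown mixed and 2.5-leaf rice seedlings were transplanted. On sowing day, the compound's emulsion, diluted in water to a set dose, was applied to the water surface. Plants grew at 25–30 °C and were scored 0–5 after three weeks.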

[2] = system: Japanese bulrush; assay: Test Example 1: herbicidal activity, application before weed generation under submerged conditions (Table 16, symbol B); type: in vivo, Japanese bulrush (Schoenoplectus juncoides); details: 320 g/ha applied herbicide
Method in brief: as §1

[3] = system: late watergrass; assay: Test Example 2: herbicidal activity, application during weed generation under submerged conditions (Table 17, symbol A); type: in vivo, late watergrass (Echinochloa oryzicola); details: AAH 320 g/ha; application during weed generation, submerged conditions
Method in brief: (§2)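 Effect on each weed is rated three weeks post-treatment, using the same scoring criteria as the preceding test. Plants grow from mixed-sown seed in flooded alluvial soil (4 cm water) at 25° C. to 30° C., and are treated at one to two leaves with diluted emulsion dropped onto the water.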

[4] = system: oval-leafed pondweed; assay: Test Example 2: herbicidal activity, application during weed generation under submerged conditions (Table 17, symbol C); type: in vivo, oval-leafed pondweed (Monochoria vaginalis); details: AAH 320 g/ha; application during weed generation, submerged conditions
Method in brief: as §2

[5] = system: barnyard grass; assay: Test Example 3: herbicidal effect by foliage application, Wagner pot (Table 18, symbol H); type: in vivo, barnyard grass (Echinochloa crus-galli); details: 320 g/ha
Method in brief: (§3)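 Plants were sown in alluvial soil held under 0.1–0.5 cm standing water and grown 14 days in a greenhouse at 25–30 °C. An emulsifiable formulation, water-diluted to the set dose, was then sprayed onto the foliage, and effects were scored three weeks later using previously defined criteria.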

[6] = system: Chinese sprangletop; assay: Test Example 3: herbicidal effect by foliage application, Wagner pot (Table 18, symbol D); type: in vivo, chinese sprangletop (Leptochloa chinensis); details: 320 g/ha
Method in brief: as §3

[7] = system: rice flat sedge; assay: Test Example 3: herbicidal effect by foliage application, Wagner pot (Table 18, symbol E); type: in vivo, rice flat sedge (Cyperus iria); details: 320 g/ha
Method in brief: as §3

[8] = system: Italian ryegrass; assay: Test Example 4: herbicidal effect by soil treatment (Table 19, symbol K); type: in vivo, Italian ryegrass (Lolium multiflorum); details: 320 g/ha
Method in brief: (§4)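 In this soil treatment, the formulated compound reached the seeds only through the soil: seeds were buried about 1.5 cm deep in sterilized diluvial soil, then the diluted emulsion was sprayed over the surface. After three weeks at 25° C. to 30° C. in a greenhouse, effects were graded on criteria from an earlier test.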

[9] = system: windgrass; assay: Test Example 4: herbicidal effect by soil treatment (Table 19, symbol L); type: in vivo, windgrass (Apera spica-venti); details: 320 g/ha
Method in brief: as §4

[10] = system: redroot pigweed; assay: Test Example 4: herbicidal effect by soil treatment (Table 19, symbol N); type: in vivo, redroot pigweed (Amaranthus retroflexus); details: 320 g/ha
Method in brief: as §4

[11] = system: southern crabgrass; assay: Test Example 5: herbicidal effect by foliage application, plastic box (Table 20, symbol F); type: in vivo, southern crabgrass (Digitaria ciliaris); details: foliage application, 320 g/ha; for effect on southern crabgrass (F): 3 weeks after application; for herbicidal effect on F: southern crabgrass: evaluated three weeks after application
Method in brief: (§5)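 Plants were sown into sterilized diluvial soil under about 1.5 cm cover and kept in a greenhouse at 25° C. to 30° C. Fourteen days on, foliage received an even spray of the diluted emulsion. Herbicidal or crop effect was judged three weeks afterwards.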

[12] = system: green foxtail; assay: Test Example 5: herbicidal effect by foliage application, plastic box (Table 20, symbol G); type: in vivo, green foxtail (Setaria viridis); details: foliage application, 320 g/ha; for effect on green foxtail (G): 3 weeks after application; for herbicidal effect on G: green foxtail: evaluated three weeks after application
Method in brief: as §5

[13] = system: barnyard grass; assay: Test Example 5: herbicidal effect by foliage application, plastic box (Table 20, symbol H); type: in vivo, barnyard grass (Echinochloa crus-galli); details: foliage application, 320 g/ha; for effect on barnyard grass (H): 3 weeks after application; for herbicidal effect on H: barnyard grass: evaluated three weeks after application
Method in brief: as §5

[14] = system: wild oat; assay: Test Example 5: herbicidal effect by foliage application, plastic box (Table 20, symbol I); type: in vivo, wild oat (Avena fatua); details: foliage application, 320 g/ha; for effect on wild oat (I): 3 weeks after application; for herbicidal effect on I: wild oat: evaluated three weeks after application
Method in brief: as §5

[15] = system: blackgrass; assay: Test Example 5: herbicidal effect by foliage application, plastic box (Table 20, symbol J); type: in vivo, blackgrass (Alopecurus myosuroides); details: foliage application, 320 g/ha; for effect on blackgrass (J): 3 weeks after application; for herbicidal effect on J: blackgrass: evaluated three weeks after application
Method in brief: as §5

[16] = system: persian speedwell; assay: Test Example 5: herbicidal effect by foliage application, plastic box (Table 20, symbol R); type: in vivo, Persian speedwell (Veronica persica); details: foliage application, 320 g/ha; for effect on persian speedwell (R): 3 weeks after application; for herbicidal effect on R: persian speedwell: evaluated three weeks after application
Method in brief: as §5

Q: With CCCC(=O)Oc1c(C)nn(C)c(=O)c1-c1c(-c2ccc(OC(F)(F)F)cc2)sc2ccc(F)cc12 [2-046] as the compound, how does the “Herbicidal effect on A: late watergrass (grade 0-5)” value [1] read?
A: 4 (Herbicidal rate of 70% or more and less than 90%)

Q: What about the “Herbicidal effect on B: Japanese bulrush (grade 0-5)” value (“Herbicidal effect on B” for short) [2] of the same compound?
A: 4 (Herbicidal rate of 70% or more and less than 90%)

Q: And the “herbicidal effect rating, A: late watergrass” value [3]?
A: 1 (Herbicidal rate of 5% or more and less than 20%)

Q: And the “herbicidal effect rating, C: oval-leafed pondweed” value (shortened to “herbicidal effect rating, C”) [4]?
A: 0 (Herbicidal rate of 5% or less (almost no effect))

Q: What about the “herbicidal effect on H (barnyard grass), rating 0-5” value (“herbicidal effect on H … rating 0-5” for short) [5] of the same compound?
A: 5 (Herbicidal rate of 90% or more (almost completely withered))

Q: And the “herbicidal effect on D (Chinese sprangletop), rating 0-5” value (“herbicidal effect on D” below) [6]?
A: 3 (Herbicidal rate of 40% or more and less than 70%)

Q: And the “herbicidal effect on E (rice flat sedge), rating 0-5” value (from here on “herbicidal effect on E”) [7]?
A: 5 (Herbicidal rate of 90% or more (almost completely withered))

Q: And the “herbicidal effect rating, K: Italian ryegrass” value (shortened to “herbicidal effect rating, K”) [8]?
A: 3 (Herbicidal rate of 40% or more and less than 70%)

Q: And the “herbicidal effect rating, L: windgrass” value [9]?
A: 0 (Herbicidal rate of 5% or less (almost no effect))

Q: And the “herbicidal effect rating, N: redroot pigweed” value (“herbicidal effect rating, N” for short) [10]?
A: 4 (Herbicidal rate of 70% or more and less than 90%)

Q: What about the “effect on southern crabgrass (F)” value [11] of the same compound?
A: 0 (Herbicidal rate of 5% or less (almost no effect))

Q: And the “effect on green foxtail (G)” value [12]?
A: 5 (Herbicidal rate of 90% or more (almost completely withered))

Q: What about the “effect on barnyard grass (H)” value [13] of the same compound?
A: 5 (Herbicidal rate of 90% or more (almost completely withered))

Q: And the “effect on wild oat (I)” value [14]?
A: 0 (Herbicidal rate of 5% or less (almost no effect))

Q: What about the “effect on blackgrass (J)” value [15] of the same compound?
A: 0 (Herbicidal rate of 5% or less (almost no effect))

Q: And the “effect on persian speedwell (R)” value [16]?
A: 5 (Herbicidal rate of 90% or more (almost completely withered))

Q: Which results are given for Cc1nn(C)c(=O)c(-c2c(-c3ccc(OCCF)cc3)sc3ccc(F)cc23)c1O [2-047]?
A: Herbicidal effect on A: late watergrass (grade 0-5) [1]: 3 (Herbicidal rate of 40% or more and less than 70%); Herbicidal effect on B: Japanese bulrush (grade 0-5) [2]: 3 (Herbicidal rate of 40% or more and less than 70%); herbicidal effect rating, A: late watergrass [3]: 0 (Herbicidal rate of 5% or less (almost no effect)); herbicidal effect rating, C: oval-leafed pondweed [4]: 2 (Herbicidal rate of 20% or more and less than 40%); herbicidal effect on H (barnyard grass), rating 0-5 [5]: 5 (Herbicidal rate of 90% or more (almost completely withered)); herbicidal effect on D (Chinese sprangletop), rating 0-5 [6]: 4 (Herbicidal rate of 70% or more and less than 90%); herbicidal effect on E (rice flat sedge), rating 0-5 [7]: 5 (Herbicidal rate of 90% or more (almost completely withered)); herbicidal effect rating, K: Italian ryegrass [8]: 1 (Herbicidal rate of 5% or more and less than 20%); herbicidal effect rating, L: windgrass [9]: 0 (Herbicidal rate of 5% or less (almost no effect)); herbicidal effect rating, N: redroot pigweed [10]: 5 (Herbicidal rate of 90% or more (almost completely withered)); effect on southern crabgrass (F) [11]: 5 (Herbicidal rate of 90% or more (almost completely withered)); effect on green foxtail (G) [12]: 5 (Herbicidal rate of 90% or more (almost completely withered)); effect on barnyard grass (H) [13]: 5 (Herbicidal rate of 90% or more (almost completely withered)); effect on wild oat (I) [14]: 3 (Herbicidal rate of 40% or more and less than 70%); effect on blackgrass (J) [15]: 4 (Herbicidal rate of 70% or more and less than 90%); effect on persian speedwell (R) [16]: 5 (Herbicidal rate of 90% or more (almost completely withered))

Q: With Cc1nn(C)c(=O)c(-c2c(-c3ccc(OCC(F)(F)F)cc3)sc3ccc(F)cc23)c1O [2-049] as the compound, how does the “Herbicidal effect on A: late watergrass (grade 0-5)” value [1] read?
A: 2 (Herbicidal rate of 20% or more and less than 40%)

Q: What about the “Herbicidal effect on B” value [2] of the same compound?
A: 3 (Herbicidal rate of 40% or more and less than 70%)

Q: What about the “herbicidal effect rating, A: late watergrass” value [3] of the same compound?
A: 0 (Herbicidal rate of 5% or less (almost no effect))

Q: And the “herbicidal effect rating, C” value [4]?
A: 2 (Herbicidal rate of 20% or more and less than 40%)

Q: And the “herbicidal effect on H … rating 0-5” value [5]?
A: 5 (Herbicidal rate of 90% or more (almost completely withered))

Q: What about the “herbicidal effect on D” value [6] of the same compound?
A: 5 (Herbicidal rate of 90% or more (almost completely withered))

Q: And the “herbicidal effect on E” value [7]?
A: 5 (Herbicidal rate of 90% or more (almost completely withered))

Q: And the “herbicidal effect rating, K” value [8]?
A: 4 (Herbicidal rate of 70% or more and less than 90%)

Q: And the “herbicidal effect rating, L: windgrass” value [9]?
A: 5 (Herbicidal rate of 90% or more (almost completely withered))

Q: And the “herbicidal effect rating, N” value [10]?
A: 5 (Herbicidal rate of 90% or more (almost completely withered))

Q: What about the “herbicidal effect on F: southern crabgrass” value [11] of the same compound?
A: 5 (Herbicidal rate of 90% or more (almost completely withered))

Q: And the “herbicidal effect on G: green foxtail” value [12]?
A: 5 (Herbicidal rate of 90% or more (almost completely withered))

Q: And the “herbicidal effect on H: barnyard grass” value [13]?
A: 5 (Herbicidal rate of 90% or more (almost completely withered))

Q: What about the “herbicidal effect on I: wild oat” value [14] of the same compound?
A: 5 (Herbicidal rate of 90% or more (almost completely withered))

Q: And the “herbicidal effect on J: blackgrass” value [15]?
A: 5 (Herbicidal rate of 90% or more (almost completely withered))

Q: And the “herbicidal effect on R: persian speedwell” value [16]?
A: 5 (Herbicidal rate of 90% or more (almost completely withered))

Q: Which “Herbicidal effect on A: late watergrass (grade 0-5)” value [1] does the source give for C=CCOc1ccc(-c2sc3ccc(F)cc3c2-c2c(O)c(C)nn(C)c2=O)cc1 [2-051] here?
A: 3 (Herbicidal rate of 40% or more and less than 70%)

Q: And the “Herbicidal effect on B” value [2]?
A: 4 (Herbicidal rate of 70% or more and less than 90%)

Q: What about the “herbicidal effect rating, A: late watergrass” value [3] of the same compound?
A: 0 (Herbicidal rate of 5% or less (almost no effect))

Q: And the “herbicidal effect rating, C” value [4]?
A: 1 (Herbicidal rate of 5% or more and less than 20%)

Q: And the “herbicidal effect on H … rating 0-5” value [5]?
A: 5 (Herbicidal rate of 90% or more (almost completely withered))

Q: And the “herbicidal effect on D” value [6]?
A: 5 (Herbicidal rate of 90% or more (almost completely withered))

Q: What about the “herbicidal effect on E” value [7] of the same compound?
A: 5 (Herbicidal rate of 90% or more (almost completely withered))

Q: And the “herbicidal effect rating, K” value [8]?
A: 0 (Herbicidal rate of 5% or less (almost no effect))

Q: And the “herbicidal effect rating, L: windgrass” value [9]?
A: 3 (Herbicidal rate of 40% or more and less than 70%)

Q: And the “herbicidal effect rating, N” value [10]?
A: 5 (Herbicidal rate of 90% or more (almost completely withered))

Q: And the “herbicidal effect on F: southern crabgrass” value [11]?
A: 5 (Herbicidal rate of 90% or more (almost completely withered))

Q: What about the “herbicidal effect on G: green foxtail” value [12] of the same compound?
A: 5 (Herbicidal rate of 90% or more (almost completely withered))

Q: What about the “herbicidal effect on H: barnyard grass” value [13] of the same compound?
A: 5 (Herbicidal rate of 90% or more (almost completely withered))

Q: And the “herbicidal effect on I: wild oat” value [14]?
A: 4 (Herbicidal rate of 70% or more and less than 90%)

Q: What about the “herbicidal effect on J: blackgrass” value [15] of the same compound?
A: 5 (Herbicidal rate of 90% or more (almost completely withered))

Q: And the “herbicidal effect on R: persian speedwell” value [16]?
A: 5 (Herbicidal rate of 90% or more (almost completely withered))

Source: US20230085307A1, “PYRIDAZINONE COMPOUND AND HERBICIDE” (NISSAN CHEMICAL CORPORATION, priority 2019, published 2023)
